Patent US8119647B2, “Fused pyrimidineone compounds as TRPV3 modulators” (Glenmark Pharmaceuticals S.A., priority 2008, dated 2012)

Molecular target: T1, Human TRPV3 (Homo sapiens, UniProt Q8NET8)
T1 construct: expressed in transfected cells; host or cells: CHO cells (G-418 selection)
T1 sequence (Q8NET8 1-790): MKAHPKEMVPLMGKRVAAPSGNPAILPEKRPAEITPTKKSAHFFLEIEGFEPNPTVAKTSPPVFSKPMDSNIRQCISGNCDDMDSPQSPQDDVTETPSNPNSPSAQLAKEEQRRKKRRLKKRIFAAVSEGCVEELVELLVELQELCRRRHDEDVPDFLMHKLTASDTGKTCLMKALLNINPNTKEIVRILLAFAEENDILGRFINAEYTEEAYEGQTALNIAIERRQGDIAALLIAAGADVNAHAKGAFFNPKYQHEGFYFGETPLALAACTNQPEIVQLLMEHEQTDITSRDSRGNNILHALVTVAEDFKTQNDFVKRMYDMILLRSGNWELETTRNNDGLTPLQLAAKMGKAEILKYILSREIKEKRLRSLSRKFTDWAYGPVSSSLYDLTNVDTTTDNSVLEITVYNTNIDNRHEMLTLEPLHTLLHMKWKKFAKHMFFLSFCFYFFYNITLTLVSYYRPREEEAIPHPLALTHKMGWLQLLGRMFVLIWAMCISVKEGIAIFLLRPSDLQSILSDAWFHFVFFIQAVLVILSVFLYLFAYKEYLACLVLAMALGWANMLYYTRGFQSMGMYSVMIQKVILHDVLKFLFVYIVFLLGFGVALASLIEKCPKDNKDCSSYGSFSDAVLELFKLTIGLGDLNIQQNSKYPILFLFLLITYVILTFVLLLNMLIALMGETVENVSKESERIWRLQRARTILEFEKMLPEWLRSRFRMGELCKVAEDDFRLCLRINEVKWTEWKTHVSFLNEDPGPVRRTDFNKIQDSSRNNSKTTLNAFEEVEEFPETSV
Experiment: Screening for TRPV3 antagonist using the 45Calcium uptake assay (inhibition of 2-APB induced cellular uptake of radioactive calcium)
Format: cell-based
Settings: human TRPV3 expressing CHO cells, 2-APB 500 μM; for inhibition at 1 µM / Percentage inhibition at 1.0 μM: 1.0 μM test compound; for inhibition at 1 µM: read-out: Percentage inhibition at 1.0 μM; for inhibition at 10 µM / Percentage inhibition at 10.0 μM: 10.0 μM test compound; for inhibition at 10 µM: read-out: Percentage inhibition at 10.0 μM; for IC50: class symbols
Source text: The illustrative examples of the present invention are screened for TRPV3 activity according to a modified procedure described in Tóth, A., Kedei, N., Wang, Y. and Blumberg, P. M. Life Sciences (2003), 73, 487-498. The screening of the compounds can be carried out by other methods and procedures known to a person skilled in the art. Such screening methods may be found in (a) Hu, H.-Z. et al. J. Biol. Chem. (2004), 279, 35741-35747; (b) Smith, G. D. et al. Nature (2002), 418, 186-190; (c) Peier, A. M. et al. Science (2002), 296, 2046-2049.
Screening for TRPV3 Antagonist Using the ^45Calcium Uptake Assay:
The inhibition of TRPV3 receptor activation was followed as inhibition of 2-aminoethoxydiphenylborate (2-APB) induced cellular uptake of radioactive calcium. Test compounds were dissolved in dimethyl sulfoxide (DMSO) to prepare 20 mM stock solution and then diluted using plain medium with DMEM/F-12 containing 1.8 mM CaCl2 to get desired concentration. Final concentration of DMSO in the reaction was 0.5% (v/v). Human TRPV3 expressing CHO cells were grown in DMEM/F-12 medium with 10% FBS, 1% penicillin-streptomycin solution, 400 μg/ml of G-418. Cells were seeded 24 h prior to the assay in 96 well plates so as to get ˜50,000 cells per well on the day of experiment. Cells were treated with test compounds for 10 minutes followed by addition of 2-APB at a final concentration of 500 μM and 5 μCi/ml ^45Ca^+2 for 4 minutes. Cells were washed and lysed using buffer containing 1% Triton X-100, 0.1% deoxycholate and 0.1% SDS. Radioactivity in the lysate was measured in Packardt Top count after addition of liquid scintillant. Concentration response curves were plotted as a % of maximal response obtained in the absence of test antagonist. IC50 value was calculated from concentration response curve by nonlinear regression analysis using GraphPad PRISM software.
Percentage inhibition at concentrations of 1.0 μM and 10.0 μM are given in the table along with IC50 (nM) values for selected examples.

SMILES	inhibition at 1 µM [%]	inhibition at 10 µM [%]	IC50 [nM]	Percentage inhibition at 1.0 μM [%]	Percentage inhibition at 10.0 μM [%]
CCCCCOc1c(/C=C/c2nc3sccn3c(=O)c2-c2ccc(OC(F)(F)F)cc2)cccc1OC [Example 55, 7-[(E)-2-(3-Methoxy-2-pentyloxyphenyl)-1-ethenyl]-6-[4-(trifluoromethoxy)phenyl]-5H-[1,3]thiazolo[3,2-a]pyrimidin-5-one]	81.7	92.8	< 250		
COc1cccc(/C=C/c2nc3sccn3c(=O)c2-c2ccc(C#N)cc2)c1OC1CCCC1 [Example 18, 4-{7-[(E)-2-(2-Cyclopentyloxy-3-methoxy)phenyl-1-ethenyl]-5-oxo-5H-[1,3]thiazolo-[3,2-a]pyrimidin-6-yl}benzonitrile]			< 250	85.0	94.2
COc1cccc(/C=C/c2nc3sc(C)cn3c(=O)c2-c2ccc(OC(F)(F)F)cc2)c1OCC1CC1 [Example 75, 7-[(E)-2-(2-Cyclopropylmethoxy-3-methoxyphenyl)-1-ethenyl]-2-methyl-6-[4-(trifluoromethoxy)phenyl]-5H-[1,3]thiazolo[3,2-a]pyrimidin-5-one]	86.3	90.4	< 250		
CCCCOc1c(/C=C/c2nc3sc4ccccc4n3c(=O)c2-c2ccc(C#N)cc2)cccc1OC [Example 87]				34.44	60.79
O=c1c(-c2ccc(OC(F)(F)F)cc2)c(/C=C/c2cccc(OCC3CC3)c2OCC2CC2)nc2sccn12 [Example 64, 7-{(E)-2-[2-(Cyclopropylmethoxy)-3-(cyclopropylmethoxy)phenyl]-1-ethenyl}-6-(4-trifluoromethoxyphenyl)-5H-[1,3]thiazolo[3,2-a]pyrimidin-5-one]	16.3	21.1			
CCOCCOc1c(/C=C/c2nc3sc4ccccc4n3c(=O)c2-c2ccc(C(F)(F)F)cc2)cccc1OC [Example 93, 2-{(E)-2-[(2-Ethoxyethoxy)-3-methoxyphenyl]-1-ethenyl}-3-(4-trifluoromethyl-phenyl)-4H-benzo[4,5][1,3]thiazolo-[3,2-a]pyrimidin-4-one]				6.53	40.18
COCCOc1c(/C=C/c2nc3sccn3c(=O)c2-c2ccc(OC(F)(F)F)cc2)cccc1OC [Example 73, 7-[(E)-2-{3-Methoxy-2-(2-methoxyethoxy)phenyl}-1-ethenyl]-6-[4-(trifluoromethoxy)-phenyl]-5H-[1,3]thiazolo[3,2-a]pyrimidin-5-one]	79.2	94.9	250 to 500		
COCCOc1c(/C=C/c2nc3sc4ccccc4n3c(=O)c2-c2ccc(OC(F)(F)F)cc2)cccc1OC [Example 96, 2-{(E)-2-[3-Methoxy-2-(2-methoxyethoxy)phenyl]-1-ethenyl}-3-(4-trifluoromethoxy-phenyl)-4H-benzo[4,5][1,3]thiazolo-[3,2-a]pyrimidin-4-one]	24.8	67.7			
COc1cc(/C=C/c2nc3sc4ccccc4n3c(=O)c2-c2ccc(C(F)(F)F)cc2)ccc1OCCCC#N [Example 94, 2-{(E)-2-[(3-Cyanopropoxy-3-methoxy)phenyl]-1-ethenyl}-3-(4-trifluoromethyl-phenyl)-4H-benzo[4,5][1,3]thiazolo-[3,2-a]pyrimidin-4-one]				5.84	10.03
COc1cccc(/C=C/c2nc3sccn3c(=O)c2-c2ccc(OC(F)(F)F)cc2)c1OCC(C)C [Example 51, 7-[(E)-2-(2-Isobutoxy-3-methoxyphenyl)-1-ethenyl]-6-[4-(trifluoromethoxy)phenyl]-5H-[1,3]thiazolo[3,2-a]pyrimidin-5-one]	89.1	95.6	< 250		
COc1cccc(/C=C/c2nc3sccn3c(=O)c2-c2ccc(C(F)(F)F)cc2)c1OCC1CC1 [Example 33, {7-[(E)-2-(2-Cyclopropylmethoxy)-3-methoxyphenyl]-1-ethenyl]-6-[4-(trifluoromethyl)phenyl]-5H-[1,3]thiazolo[3,2-a]pyrimidin-5-one]	85.3	97.4	< 250		
COc1cccc(/C=C/c2nc3sccn3c(=O)c2-c2cccc(C(F)(F)F)c2)c1OCC1CC1 [Example 40, 7-[(E)-2-(2-Cyclopropylmethoxy-3-methoxyphenyl)-1-ethenyl]-6-[3-(trifluoromethyl)phenyl]-5H-[1,3]thiazolo[3,2-a]pyrimidin-5-one]	4.6	31.3			
O=c1c(-c2ccc(OC(F)(F)F)cc2)c(/C=C/c2cccc(O)c2OCC2CC2)nc2sccn12 [Example 60]				41.32	81.57
COc1cccc(/C=C/c2nc3sccn3c(=O)c2-c2ccc(OC(F)(F)F)cc2)c1OC1CCCC1 [Example 68]	75.8	83.6	< 250		
CCCCOc1c(/C=C/c2nc3sccn3c(=O)c2-c2ccc(C(F)(F)F)cc2)cccc1OC [Example 26, 7-[(E)-2-(2-Butoxy-3-methoxyphenyl)-1-ethenyl]-6-[4-(trifluoromethyl)phenyl]-5H-[1,3]thiazolo[3,2-a]pyrimidin-5-one]	56.6	84.5			
CCOCCOc1c(/C=C/c2nc3sc4ccccc4n3c(=O)c2-c2ccc(C#N)cc2)cccc1OC [Example 85]	81.8	91.9	< 250		
CCOCCOc1c(/C=C/c2nc3sccn3c(=O)c2-c2ccc(C#N)cc2)cccc1OC [Example 15, 4-{7-[(E)-2-(2-Ethoxyethoxy-3-methoxyphenyl]-1-ethenyl}-5-oxo-5H-[1,3]thiazolo[3,2-a]pyrimidin-6-yl}benzonitrile]	73.1	94.8	500 to 1000		
COc1cccc(/C=C/c2nc3sccn3c(=O)c2-c2ccc(O)cc2)c1OCC1CC1 [Example 7, 7-[(E)-2-(2-Cyclopropylmethoxy-3-methoxyphenyl)-1-ethenyl]-6-(4-hydroxyphenyl)-5H-[1,3]thiazolo[3,2-a]pyrimidin-5-one]	12	69.3			
COc1cccc(/C=C/c2nc3n(C)c4ccccc4n3c(=O)c2-c2ccc(OC(F)(F)F)cc2)c1OCC1CC1 [Example 98, 2-[(E)-2-(2-Cyclopropylmethoxy-3-methoxyphenyl)vinyl]-3-(4-trifluoromethoxyphenyl)-10-methylpyrimido[1,2-a]benzimidazol-4(10H)-one]	23	30			
CCCOc1c(/C=C/c2nc3sccn3c(=O)c2-c2ccc(C(F)(F)F)cc2)cccc1OC [Example 25, 7-[(E)-2-(3-Methoxy-2-propoxyphenyl)-1-ethenyl]-6-[4-(trifluoromethyl)phenyl]-5H-[1,3]thiazolo[3,2-a]pyrimidin-5-one]	70.7	89.9	500 to 1000		
COc1cccc(/C=C/c2nc3sccn3c(=O)c2-c2ccc(C(F)(F)F)cc2)c1OCCC(C)C [Example 28, 7-[(E)-2-(2-Isopentyloxy-3-methoxyphenyl)-1-ethenyl]-6-[4-(trifluoromethyl)phenyl]-5H-[1,3]thiazolo[3,2-a]pyrimidin-5-one]	59.7	85.3			
